How the values were obtained:
[1] = Inhibition of bovine testes DPP9 using Ala-Pro-p-nitroanilide as substrate preincubated for 15 mins followed by substrate addition measured for 10 mins by […]; parameters: species or system Bos taurus
Prolyl endopeptidase FAP = molecular target: T1, Prolyl endopeptidase FAP (Mus musculus, UniProt P97321); assay: Inhibition of BALB/c mouse 5'-His6-tagged 3'-FLAG-tagged FAP fused with ECD expressed in HEK293 cells using Ala-Pro-p-nitroanilide as substrate preincubated for 15 mins followed by substrate addition measured for 10 mins by […]; format: cell-based
T1 sequence (P97321 whole entry): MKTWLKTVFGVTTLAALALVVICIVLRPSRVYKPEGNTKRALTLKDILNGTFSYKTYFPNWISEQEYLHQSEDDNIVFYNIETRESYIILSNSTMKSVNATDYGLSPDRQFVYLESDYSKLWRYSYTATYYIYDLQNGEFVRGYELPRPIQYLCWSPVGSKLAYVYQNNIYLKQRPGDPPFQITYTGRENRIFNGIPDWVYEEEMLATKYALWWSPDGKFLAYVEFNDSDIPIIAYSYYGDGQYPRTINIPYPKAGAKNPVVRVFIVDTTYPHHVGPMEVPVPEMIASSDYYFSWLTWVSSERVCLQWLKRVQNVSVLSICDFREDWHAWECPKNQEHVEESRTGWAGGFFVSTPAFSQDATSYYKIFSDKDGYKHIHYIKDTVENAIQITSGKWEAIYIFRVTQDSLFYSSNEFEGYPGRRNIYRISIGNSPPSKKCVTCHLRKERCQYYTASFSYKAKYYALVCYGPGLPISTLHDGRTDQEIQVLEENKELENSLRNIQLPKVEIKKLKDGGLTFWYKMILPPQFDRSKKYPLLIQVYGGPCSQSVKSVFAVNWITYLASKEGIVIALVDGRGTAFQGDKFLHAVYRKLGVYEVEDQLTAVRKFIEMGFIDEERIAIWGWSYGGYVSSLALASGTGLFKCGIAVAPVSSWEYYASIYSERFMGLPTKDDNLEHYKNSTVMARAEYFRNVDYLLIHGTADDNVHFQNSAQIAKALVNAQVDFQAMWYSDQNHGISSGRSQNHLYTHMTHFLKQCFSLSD

Dipeptidyl peptidase 2 = Dipeptidyl peptidase 2 (Homo sapiens, UniProt Q9UHL4); assay: Inhibition of DPP2 in human seminal plasma using Lys-Ala-p-nitroanilide as substrate preincubated for 15 mins followed by substrate addition measured for 10 mins by […]; format: cell-free
Dipeptidyl peptidase 8 = Dipeptidyl peptidase 8 (Homo sapiens, UniProt Q6V1X1); assay: Inhibition of full length human DPP8 expressed in baculovirus infected sf9 cells using Ala-Pro-p-nitroanilide as substrate preincubated for 15 mins followed by substrate addition measured for 10 mins by […]
Dipeptidyl peptidase 4 = Dipeptidyl peptidase 4 (Homo sapiens, UniProt P27487); assay: Inhibition of DPP4 in human seminal plasma using Gly-Pro-p-nitroanilide as substrate preincubated for 15 mins followed by substrate addition measured for 10 mins by […]; format: cell-free
Sequence of Dipeptidyl peptidase 4 (P27487 whole entry): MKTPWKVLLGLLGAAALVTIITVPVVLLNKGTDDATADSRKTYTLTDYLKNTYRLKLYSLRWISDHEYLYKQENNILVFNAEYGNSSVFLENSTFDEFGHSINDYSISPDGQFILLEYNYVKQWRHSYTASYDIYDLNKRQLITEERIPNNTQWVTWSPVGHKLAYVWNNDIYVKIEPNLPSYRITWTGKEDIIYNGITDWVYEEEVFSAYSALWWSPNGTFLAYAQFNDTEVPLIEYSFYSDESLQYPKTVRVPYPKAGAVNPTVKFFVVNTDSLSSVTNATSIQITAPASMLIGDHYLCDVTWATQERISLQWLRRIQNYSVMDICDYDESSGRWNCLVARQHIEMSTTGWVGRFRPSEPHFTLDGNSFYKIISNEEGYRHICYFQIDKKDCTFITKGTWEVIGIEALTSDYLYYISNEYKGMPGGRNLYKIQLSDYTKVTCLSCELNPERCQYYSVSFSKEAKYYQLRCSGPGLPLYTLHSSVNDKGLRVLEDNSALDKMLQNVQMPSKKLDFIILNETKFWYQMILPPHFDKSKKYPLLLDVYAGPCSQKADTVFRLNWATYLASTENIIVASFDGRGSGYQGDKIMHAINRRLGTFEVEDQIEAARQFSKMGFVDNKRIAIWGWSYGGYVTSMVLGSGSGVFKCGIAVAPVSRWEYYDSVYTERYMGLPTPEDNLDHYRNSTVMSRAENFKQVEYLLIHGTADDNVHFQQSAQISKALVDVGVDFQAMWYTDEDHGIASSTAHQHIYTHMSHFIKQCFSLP

Sequence of Dipeptidyl peptidase 8 (Q6V1X1 whole entry): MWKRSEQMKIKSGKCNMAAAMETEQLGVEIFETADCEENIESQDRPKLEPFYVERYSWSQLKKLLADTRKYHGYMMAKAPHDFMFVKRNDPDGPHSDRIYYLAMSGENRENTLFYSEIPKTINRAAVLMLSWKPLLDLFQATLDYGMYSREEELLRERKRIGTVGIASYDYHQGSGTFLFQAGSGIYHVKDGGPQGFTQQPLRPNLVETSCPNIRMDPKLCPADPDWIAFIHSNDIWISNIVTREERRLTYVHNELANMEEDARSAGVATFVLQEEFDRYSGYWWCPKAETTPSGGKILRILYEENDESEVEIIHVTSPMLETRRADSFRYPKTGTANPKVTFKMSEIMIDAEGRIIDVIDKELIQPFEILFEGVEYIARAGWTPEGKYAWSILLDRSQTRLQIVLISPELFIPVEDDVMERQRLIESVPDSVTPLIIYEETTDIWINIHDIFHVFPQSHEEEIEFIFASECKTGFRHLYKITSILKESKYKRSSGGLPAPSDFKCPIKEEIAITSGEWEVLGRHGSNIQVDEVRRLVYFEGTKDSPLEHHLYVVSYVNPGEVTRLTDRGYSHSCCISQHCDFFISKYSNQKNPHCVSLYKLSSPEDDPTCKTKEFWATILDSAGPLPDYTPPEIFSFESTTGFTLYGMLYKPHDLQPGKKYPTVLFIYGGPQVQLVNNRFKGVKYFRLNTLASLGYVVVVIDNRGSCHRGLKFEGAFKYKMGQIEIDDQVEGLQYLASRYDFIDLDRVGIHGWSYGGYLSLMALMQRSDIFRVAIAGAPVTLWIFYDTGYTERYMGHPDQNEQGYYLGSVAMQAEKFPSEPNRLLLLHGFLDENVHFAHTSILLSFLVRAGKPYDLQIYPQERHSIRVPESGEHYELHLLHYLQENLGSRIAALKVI

IC50 [1]	IC50 (Dipeptidyl peptidase 2)	SMILES	further results
0.084 µM		N[C@@H](CC(=O)N1CCN(C(c2ccc(F)cc2)c2ccc(F)cc2)CC1)C(=O)N1Cc2ccccc2C1	IC50 (Prolyl endopeptidase FAP): > 100 µM
0.0218 µM		N#C[C@@H]1[C@@H]2C[C@@H]2CN1C(=O)[C@@H](N)CC(=O)N1CCN(C(c2ccc(F)cc2)c2ccc(F)cc2)CC1	
30 µM	> 100 µM	Cc1nc2c(s1)CN(C(=O)[C@@H](N)CC(=O)N1CCN(C(c3ccc(F)cc3)c3ccc(F)cc3)CC1)C2	
0.36 µM		CCC1CCN(C(=O)[C@@H](N)CC(=O)N2CCN(C(c3ccc(F)cc3)c3ccc(F)cc3)CC2)C1 (stereo partly specified)	IC50 (Prolyl endopeptidase FAP): > 100 µM
5.7 µM		CCC1CCN(C(=O)[C@@H](N)[C@H](C)CC)C1 (stereo partly specified)	
0.23 µM	> 25 µM	N#C[C@@H]1C[C@H](N=[N+]=[N-])CN1C(=O)[C@@H](N)CC(=O)N1CCN(C(c2ccc(F)cc2)c2ccc(F)cc2)CC1	
> 100 µM	> 100 µM	CC[C@@H](C)[C@H](N)C(=O)N1Cc2nc(C)sc2C1	IC50 (Dipeptidyl peptidase 8): > 25 µM
0.083 µM		C=C1C[C@@H](C#N)N(C(=O)[C@@H](N)CC(=O)N2CCN(C(c3ccc(F)cc3)c3ccc(F)cc3)CC2)C1	
2.4 µM		N[C@@H](CC(=O)N1CCN(C(c2ccc(F)cc2)c2ccc(F)cc2)CC1)C(=O)N1Cc2conc2C1	
0.012 µM		C[C@H]1C[C@@H](C#N)N(C(=O)[C@@H](N)CC(=O)N2CCN(C(c3ccc(F)cc3)c3ccc(F)cc3)CC2)C1	
3.5 µM		N[C@@H](CC(=O)N1CCN(C(c2ccc(F)cc2)c2ccc(F)cc2)CC1)C(=O)N1CCC(C(F)(F)F)C1 (stereo partly specified)	
4.7 µM		CC[C@@H](C)[C@H](N)C(=O)N1CCC(C)C1 (stereo partly specified)	
16 µM	> 100 µM	C=C1CCN(C(=O)[C@@H](N)[C@H](C)CC)C1	IC50 (Dipeptidyl peptidase 4): > 50 µM
2.84 µM	> 100 µM	CC[C@@H](C)[C@H](N)C(=O)N1C[C@H]2C[C@H]2[C@H]1C#N	
0.17 µM		CC1CCN(C(=O)[C@@H](N)CC(=O)N2CCN(C(c3ccc(F)cc3)c3ccc(F)cc3)CC2)C1 (stereo partly specified)	IC50 (Prolyl endopeptidase FAP): > 100 µM
0.41 µM	> 100 µM	C=C1CCN(C(=O)[C@@H](N)CC(=O)N2CCN(C(c3ccc(F)cc3)c3ccc(F)cc3)CC2)C1	
> 100 µM	> 100 µM	CC[C@@H](C)[C@H](N)C(=O)N1Cc2cn[nH]c2C1	IC50 (Dipeptidyl peptidase 8): > 100 µM
42 µM		CC[C@@H](C)[C@H](N)C(=O)N1Cc2conc2C1	
> 25 µM	> 100 µM	N[C@@H](CC(=O)N1CCN(C(c2ccc(F)cc2)c2ccc(F)cc2)CC1)C(=O)N1Cc2cn[nH]c2C1	IC50 (Dipeptidyl peptidase 8): > 100 µM
		CC[C@@H](C)[C@H](N)C(=O)N1Cc2ccccc2C1	IC50 (Prolyl endopeptidase FAP): > 100 µM
		CC[C@@H](C)[C@H](N)C(=O)N1C[C@@H](N=[N+]=[N-])C[C@H]1C#N	IC50 (Prolyl endopeptidase FAP): > 100 µM
